# Values of other authors, collected in patent publication EP1239029B1, “Cleaning compositions” (UNILEVER PLC, priority 2001, dated 2002).
# Read-outs that look alike come from different tables or passages of the source.
# [1] = other common materials, by contrast, at 20°C
"Water Solubility (g/100g) (highly water-soluble materials, grams of solid to form a saturated solution in 100 grams of water at 20°C)",Structure (SMILES),Water Solubility (g/100g) [1] [g/100g]
–,O=BO[O-].[Na+] [Sodium perborate anhydrous],3.7
–,O=P(O)(O)OP(=O)(O)OP(=O)(O)O [Sodium tripolyphosphate anhydrous],15
>100,NC(N)=O [Urea],–
